Values of other authors as cited in paper PMC7904743, “WIDOCK: a reactive docking protocol for virtual screening of covalent inhibitors” (Journal of Computer-Aided Molecular Design, 2021).
Where two headings read alike, the source gives them in different places.

Columns and labels:
[1] = tested on: OTUB2; details: experimental actives if % labeling higher than 50%, cited from earlier work
[2] = thiol reactivity, cited from earlier work
[3] = tested on: NUDT7; details: protein labeling at 200 μM; experimental actives if % labeling higher than 50%; cited from earlier work
[4] = natural log of average kinetic rate constant
[5] = natural log of average rate constant
[6] = natural log of average rate constant k
[7] = natural logarithm of average rate constant

SMILES | OTUB2 % labeling ([1]; OTUB2 protein labeling) | ln(avg k) [2, 4] | ln(avg k) [2, 5] | NUDT7 % labeling [3] | OTUB2 % labeling [1] | ln(avg k) [2, 6] | ln(avg k) [2, 7]
O=C(CCl)NCc1cc(Br)cs1 [PCM-0103050, O=C(CCl)NCc1cc(Br)cs1] | 84% | -16.422 | -16.422 | 13% | – | – | –
CC(C)C(C)(C#N)NC(=O)CCl (stereo not shown) [PCM-0102626, CC(C)C(C)(C#N)NC(=O)CCl] | – | – | – | 0% | 0% | -15.951 | -15.951
CC1CCc2c(sc(NC(=O)CCl)c2C#N)C1 (stereo not shown) [PCM-0102420, CC1CCc2c(sc(NC(=O)CCl)c2C#N)C1] | – | – | – | 47% | 0% | -16.452 | -16.452
O=C(CCl)N1CCN(S(=O)(=O)c2c(F)cccc2F)CC1 [PCM-0102201, O=C(CCl)N1CCN(S(=O)(=O)c2c(F)cccc2F)CC1] | – | – | – | 0% | 0% | -15.250 | -15.250
O=C(CCl)N1CCN(Cc2ccsc2)CC1 [PCM-0102739, O=C(CCl)N1CCN(Cc2ccsc2)CC1] | 0% | -15.640 | -15.640 | 7% | – | – | –
O=C(CCl)Nc1cc(F)cc(F)c1 [PCM-0102874, O=C(CCl)Nc1cc(F)cc(F)c1] | 0% | -15.799 | -15.799 | 18% | – | – | –
C=CC(=O)NC(=O)Nc1ccccc1 [PCM-0102883, C=CC(=O)NC(=O)Nc1ccccc1] | 0% | -16.619 | -16.619 | 0% | – | – | –
Cc1ccc(NC(=O)CCl)cc1 [PCM-0102320, Cc1ccc(NC(=O)CCl)cc1] | – | – | – | 0% | 24% | -16.011 | -16.011
O=C(CCl)NC1CCOc2ccccc21 (stereo not shown) [PCM-0102871, O=C(CCl)NC1CCOc2ccccc21] | 44% | -16.366 | -16.366 | 0% | – | – | –
CC1CN(c2ccc(NC(=O)CCl)cc2)CC(C)O1 (stereo not shown) [PCM-0102750, CC1CN(c2ccc(NC(=O)CCl)cc2)CC(C)O1] | 24% | -15.710 | -15.710 | 0% | – | – | –
COC(=O)c1cc(NC(=O)CCl)cn1C [PCM-0102545, COC(=O)c1cc(NC(=O)CCl)cn1C] | – | – | – | 0% | 33% | -15.579 | -15.579
O=C(CCl)NCc1cccnc1 [PCM-0102497, O=C(CCl)NCc1cccnc1] | – | – | – | 0% | 5% | -17.127 | -17.127
CNC(=O)C1CCCN1C(=O)CCl (stereo not shown) [PCM-0102518, CNC(=O)C1CCCN1C(=O)CCl] | – | – | – | 0% | 0% | -16.106 | -16.106
O=C(CCl)NNC(=O)C1CCC1 [PCM-0103061, O=C(CCl)NNC(=O)C1CCC1] | 14% | -15.962 | -15.962 | 28% | – | – | –
N#Cc1ccccc1S(=O)(=O)N1CCN(C(=O)CCl)CC1 [PCM-0102395, N#Cc1ccccc1S(=O)(=O)N1CCN(C(=O)CCl)CC1] | – | – | – | 28% | 0% | -15.498 | -15.498
O=C(CCl)NCc1ccc2c(c1)OCO2 [PCM-0102578, O=C(CCl)NCc1ccc2c(c1)OCO2] | – | – | – | 0% | 16% | -16.736 | -16.736
